{"source": "paper PMC7377239", "about": "“Cardiovascular Effects of Polychlorinated Biphenyls and Their Major Metabolites” (Environmental Health Perspectives, 2020)", "key": {"[1]": {"test_system": "iCell cardiomyocytes (human iPSC-derived cardiomyocytes)", "test": "High-content imaging of cytotoxicity and mitochondrial integrity in iPSC-CMs", "type": "cell-based", "details": "Homo sapiens, Cardiomyocyte; for viability at 0.01 µM / activity at 0.01 µM / viability at 0.1 µM / activity at 0.1 µM / viability at 1 µM / activity at 1 µM / viability at 10 µM / activity at 10 µM / viability at 100 µM / activity at 100 µM: 0.00 µM = 100.00; for viability at 0.1 µM / activity at 0.1 µM: 0.10 µM", "how_it_was_run": "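Cardiomyocytes grown on gelatinized 384-well plates received fresh medium on the experiment day and were then exposed to chemicals at 0.01–100μM. Nuclei and mitochondria were labeled with Hoechst 33342 and MitoTracker™ Orange, then fixed, and imaged on an ImageXpress® Micro Confocal system. Four-parameter logistic concentration–response fits in R, with a one-standard-deviation vehicle cutoff, gave point-of-departure values.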"}, "[2]": {"test_system": "HUVECs", "test": "High-content imaging cytotoxicity in HUVECs, 24 h", "type": "cell-based, human", "details": "Homo sapiens, HUVEC, 24 h, HUVECs; for viability at 0.01 µM / activity at 0.01 µM: concentration 0.01 µM; for viability at 0.01 µM / activity at 0.01 µM / viability at 0.1 µM / activity at 0.1 µM / viability at 1 µM / activity at 1 µM / viability at 10 µM / activity at 10 µM / viability at 100 µM / activity at 100 µM: 0.00 µM = 100.00; for viability at 0.1 µM / activity at 0.1 µM: concentration 0.10 µM; for viability at 1 µM / activity at 1 µM: concentration 1.00 µM; for viability at 10 µM / activity at 10 µM: concentration 10.00 µM; for viability at 100 µM / activity at 100 µM: concentration 100.00 µM; for minimal effective concentration: MAX 100.00", "how_it_was_run": "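Confluent HUVEC monolayers, passages 1–5, received test chemicals for 24 h. Cytotoxicity was scored from triple-stain high-content images, with PODs defined by a one-SD deviation from 0.5% DMSO vehicle controls.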"}, "[3]": {"details": "1.5 h, 90min, read-out: cm.cam.90min"}, "[4]": {"details": "1.5 h, 90min, read-out: cm.mii.90min"}, "[5]": {"details": "1.5 h, 90min, read-out: cm.mito.90min"}, "[6]": {"details": "1.5 h, 90min, read-out: cm.tc.90min"}, "[7]": {"details": "24 h, 24hrs, read-out: cm.cam.24hrs"}, "[8]": {"details": "24 h, 24hrs, read-out: cm.mii.24hrs"}, "[9]": {"details": "24 h, 24hrs, read-out: cm.mito.24hrs"}, "[10]": {"details": "24 h, 24hrs, read-out: cm.tc.24hrs"}, "[11]": {"details": "24 hr, read-out: huvec.cyto.24hr"}, "[12]": {"details": "24 hr, read-out: huvec.mito.24hr"}, "[13]": {"details": "24 hr, read-out: huvec.mitoint.24hr"}, "[14]": {"details": "24 hr, read-out: huvec.nma.24hr"}, "[15]": {"details": "24 hrs, read-out: huvec.tc.24hrs"}}, "note": "Where two headings read alike, the source gives them in different places."}
{"smiles": "COc1cc(Cl)c(-c2cc(Cl)ccc2Cl)cc1Cl", "note": "[4-OMe PCB52]", "values": [{"measurement": "viability at 0.01 µM", "setting": "[1]; [3]", "value": 94.3, "unit": "%"}, {"measurement": "activity at 0.01 µM", "setting": "[1]; [4]", "value": 101, "unit": "%"}, {"measurement": "activity at 0.01 µM", "setting": "[1]; [5]", "value": 94.1, "unit": "%"}, {"measurement": "viability at 0.01 µM", "setting": "[1]; [6]", "value": 94.2, "unit": "%"}, {"measurement": "viability at 0.1 µM", "setting": "[1]; [3]", "value": 98.7, "unit": "%"}, {"measurement": "activity at 0.1 µM", "setting": "[1]; [4]", "value": 90.9, "unit": "%"}, {"measurement": "activity at 0.1 µM", "setting": "[1]; [5]", "value": 98.7, "unit": "%"}, {"measurement": "viability at 0.1 µM", "setting": "[1]; [6]", "value": 98.8, "unit": "%"}, {"measurement": "viability at 1 µM", "setting": "[1]; [3]", "value": 101, "unit": "%"}, {"measurement": "activity at 1 µM", "setting": "[1]; [4]", "value": 95.2, "unit": "%"}, {"measurement": "activity at 1 µM", "setting": "[1]; [5]", "value": 101, "unit": "%"}, {"measurement": "viability at 1 µM", "setting": "[1]; [6]", "value": 101, "unit": "%"}, {"measurement": "viability at 10 µM", "setting": "[1]; [3]", "value": 100, "unit": "%"}, {"measurement": "activity at 10 µM", "setting": "[1]; [4]", "value": 108, "unit": "%"}, {"measurement": "activity at 10 µM", "setting": "[1]; [5]", "value": 99.8, "unit": "%"}, {"measurement": "viability at 10 µM", "setting": "[1]; [6]", "value": 100, "unit": "%"}, {"measurement": "viability at 100 µM", "setting": "[1]; [3]", "value": 0.37, "unit": "%"}, {"measurement": "activity at 100 µM", "setting": "[1]; [4]", "value": 69.6, "unit": "%"}, {"measurement": "activity at 100 µM", "setting": "[1]; [5]", "value": 0.37, "unit": "%"}, {"measurement": "viability at 100 µM", "setting": "[1]; [6]", "value": 0.46, "unit": "%"}, {"measurement": "minimal effective concentration", "setting": "[1]; 1.5 h, 90min, read-out: cm.cam.90min POD", "value": 27.6, "unit": "µM"}, {"measurement": "minimal effective concentration", "setting": "[1]; 1.5 h, 90min, read-out: cm.mii.90min POD", "value": 57.2, "unit": "µM"}, {"measurement": "minimal effective concentration", "setting": "[1]; 1.5 h, 90min, read-out: cm.mito.90min POD", "value": 18.6, "unit": "µM"}, {"measurement": "minimal effective concentration", "setting": "[1]; 1.5 h, 90min, read-out: cm.tc.90min POD", "value": 33, "unit": "µM"}, {"measurement": "viability at 0.01 µM", "setting": "[1]; [7]", "value": 97.9, "unit": "%"}, {"measurement": "activity at 0.01 µM", "setting": "[1]; [8]", "value": 95.9, "unit": "%"}, {"measurement": "activity at 0.01 µM", "setting": "[1]; [9]", "value": 98.7, "unit": "%"}, {"measurement": "viability at 0.01 µM", "setting": "[1]; [10]", "value": 98.3, "unit": "%"}, {"measurement": "viability at 0.1 µM", "setting": "[1]; [7]", "value": 106, "unit": "%"}, {"measurement": "activity at 0.1 µM", "setting": "[1]; [8]", "value": 91.2, "unit": "%"}, {"measurement": "activity at 0.1 µM", "setting": "[1]; [9]", "value": 107, "unit": "%"}, {"measurement": "viability at 0.1 µM", "setting": "[1]; [10]", "value": 106, "unit": "%"}, {"measurement": "viability at 1 µM", "setting": "[1]; [7]", "value": 102, "unit": "%"}, {"measurement": "activity at 1 µM", "setting": "[1]; [8]", "value": 99.8, "unit": "%"}, {"measurement": "activity at 1 µM", "setting": "[1]; [9]", "value": 101, "unit": "%"}, {"measurement": "viability at 1 µM", "setting": "[1]; [10]", "value": 102, "unit": "%"}, {"measurement": "viability at 10 µM", "setting": "[1]; [7]", "value": 102, "unit": "%"}, {"measurement": "activity at 10 µM", "setting": "[1]; [8]", "value": 78.7, "unit": "%"}, {"measurement": "activity at 10 µM", "setting": "[1]; [9]", "value": 103, "unit": "%"}, {"measurement": "viability at 10 µM", "setting": "[1]; [10]", "value": 102, "unit": "%"}, {"measurement": "viability at 100 µM", "setting": "[1]; [7]", "value": 4.05, "unit": "%"}, {"measurement": "activity at 100 µM", "setting": "[1]; [8]", "value": 55.8, "unit": "%"}, {"measurement": "activity at 100 µM", "setting": "[1]; [9]", "value": 2.86, "unit": "%"}, {"measurement": "viability at 100 µM", "setting": "[1]; [10]", "value": 4.37, "unit": "%"}, {"measurement": "minimal effective concentration", "setting": "[1]; 24 h, read-out: cm.cam.24hrs POD", "value": 33, "unit": "µM"}, {"measurement": "minimal effective concentration", "setting": "[1]; 24 h, read-out: cm.mii.24hrs POD", "value": 5.58, "unit": "µM"}, {"measurement": "minimal effective concentration", "setting": "[1]; 24 h, read-out: cm.mito.24hrs POD", "value": 35.8, "unit": "µM"}, {"measurement": "minimal effective concentration", "setting": "[1]; 24 h, read-out: cm.tc.24hrs POD", "value": 35, "unit": "µM"}, {"measurement": "viability at 0.01 µM", "setting": "[2]; [11]", "value": 105, "unit": "%"}, {"measurement": "activity at 0.01 µM", "setting": "[2]; [12]", "value": 105, "unit": "%"}, {"measurement": "activity at 0.01 µM", "setting": "[2]; [13]", "value": 107, "unit": "%"}, {"measurement": "activity at 0.01 µM", "setting": "[2]; [14]", "value": 98.6, "unit": "%"}, {"measurement": "viability at 0.1 µM", "setting": "[2]; [11]", "value": 102, "unit": "%"}, {"measurement": "activity at 0.1 µM", "setting": "[2]; [12]", "value": 102, "unit": "%"}, {"measurement": "activity at 0.1 µM", "setting": "[2]; [13]", "value": 114, "unit": "%"}, {"measurement": "activity at 0.1 µM", "setting": "[2]; [14]", "value": 99.1, "unit": "%"}, {"measurement": "viability at 1 µM", "setting": "[2]; [11]", "value": 85.9, "unit": "%"}, {"measurement": "activity at 1 µM", "setting": "[2]; [12]", "value": 85.8, "unit": "%"}, {"measurement": "activity at 1 µM", "setting": "[2]; [13]", "value": 113, "unit": "%"}, {"measurement": "activity at 1 µM", "setting": "[2]; [14]", "value": 104, "unit": "%"}, {"measurement": "viability at 10 µM", "setting": "[2]; [11]", "value": 57.8, "unit": "%"}, {"measurement": "activity at 10 µM", "setting": "[2]; [12]", "value": 31.1, "unit": "%"}, {"measurement": "activity at 10 µM", "setting": "[2]; [13]", "value": 11.1, "unit": "%"}, {"measurement": "activity at 10 µM", "setting": "[2]; [14]", "value": 54.2, "unit": "%"}, {"measurement": "viability at 100 µM", "setting": "[2]; [11]", "value": 60, "unit": "%"}, {"measurement": "activity at 100 µM", "setting": "[2]; [12]", "value": 23, "unit": "%"}, {"measurement": "activity at 100 µM", "setting": "[2]; [13]", "value": 13.4, "unit": "%"}, {"measurement": "activity at 100 µM", "setting": "[2]; [14]", "value": 63.6, "unit": "%"}, {"measurement": "minimal effective concentration", "setting": "[2]; 24 hr, read-out: huvec.cyto.24hr POD", "value": 0.78, "unit": "µM"}, {"measurement": "minimal effective concentration", "setting": "[2]; 24 hr, read-out: huvec.mito.24hr POD", "value": 0.55, "unit": "µM"}, {"measurement": "minimal effective concentration", "setting": "[2]; 24 hr, read-out: huvec.mitoint.24hr POD", "value": 2.69, "unit": "µM"}, {"measurement": "minimal effective concentration", "setting": "[2]; 24 hr, read-out: huvec.nma.24hr POD", "value": 2.36, "unit": "µM"}, {"measurement": "viability at 0.01 µM", "setting": "[2]; [15]", "value": 105, "unit": "%"}, {"measurement": "viability at 0.1 µM", "setting": "[2]; [15]", "value": 102, "unit": "%"}, {"measurement": "viability at 1 µM", "setting": "[2]; [15]", "value": 85.9, "unit": "%"}, {"measurement": "viability at 10 µM", "setting": "[2]; [15]", "value": 57.9, "unit": "%"}, {"measurement": "viability at 100 µM", "setting": "[2]; [15]", "value": 60, "unit": "%"}, {"measurement": "minimal effective concentration", "setting": "[2]; 24 hrs, read-out: huvec.tc.24hrs POD", "value": 0.78, "unit": "µM"}]}
